According to EP0974353A2, “The use of homocysteine derivatives for the preparation of medicaments inhibiting bacterial adhesiveness” (EDMOND PHARMA S.R.L., priority 1998, dated 2000):
“Also recorded” adds a separate entry of the source.

Assays:
[1] = tested on: E. coli strains, ATCC 25922 strain and two others isolated from human urinary infections; test: Inhibition of bacterial adhesiveness to human buccal/palatal epithelial cells, E. coli; format: cell-based; details: three E. coli strains; for inhibitory activity on adhesiveness: even at the maximum tested concentration (10 mcg/ml)
Description: (§1) Said procedures consist in incubating the active substance with bacteria in order to interfere with their adhesiveness mechanism and subsequently adding mucosa cells, observing the obtained result.
(§2) Human epithelial cells were collected from buccal and palatal mucosa of healthy volunteers by a sterile spatula, subsequently immersed in 2 ml of physiological saline buffered with phosphate buffer, combining then the suspensions from different volunteers.
(§3) Tests were carried out with three different E. coli strains, ATCC 25922 strain and two others isolated from human urinary infections, as well as with three S. aureus strains, ATCC 25923 strain and two others from human respiratory infections, using concentrations of 1.25, 2.5, 5 and 10 mcg/ ml for each tested compound.

[2] = tested on: S. aureus strains, ATCC 25923 strain and two others from human respiratory infections; test: Inhibition of bacterial adhesiveness to human buccal/palatal epithelial cells, S. aureus; format: cell-based
Description: as §1, §2, §3

bacterial adhesiveness = test: Inhibition of bacterial adhesiveness, bacterium not specified; format: cell-based; details: bacterium and concentration not given; general statement
Description: as §1, §2, §3

[3] = rank among the erdosteine metabolites; from R. Scuri et al.; cited from earlier work

Row | Structure (SMILES) | inhibitory activity on adhesiveness [1] | inhibition of bacterial adhesiveness (bacterial adhesiveness) | also measured
1 | CC(=O)N[C@@H](CS)C(=O)O [N-acetylcysteine] | no inhibitory activity | much less active, or even inactive | activity in reducing bacterial adhesiveness ([2]; incubation with S. aureus, concentration not stated (tested 1.25, 2.5, 5 and 10 mcg/ml)): no specific activity
2 | CC(=O)N[C@@H](CCS)C(=O)O [N-acetylhomocysteine] | no inhibitory activity |  | 
3 | O=C(O)CSCC(=O)NC(CCS)C(=O)O (stereo not shown) [compound (A), N-(Thiodiglycoyl)homocysteine] |  | remarkable inhibitory activity | inhibitory activity of bacterial adhesiveness ([1]; already at a concentration of 2.5 mcg/ml, compared with the control (bacteria with no tested compound)): significant inhibitory activity; reduction of S. aureus adhesiveness to epithelial cells ([2]; at concentrations of 2.5 to 10 mcg/ml): significant reduction; mucolytic activity [3]: lowest mucolytic activity
4 | O=C(O)CSCC(=O)NC1CCSC1=O (stereo not shown) [erdosteine, N-(thiodiglycoyl)homocysteine gamma-thiolactone] |  | not inhibited in a statistically significant way; also recorded: almost devoid of such an activity | 
5 | N[C@@H](CCS)C(=O)O [homocysteine] |  |  | inhibitory activity on adhesiveness, difference compared with the control test ([1]; concentration not stated (tested 1.25, 2.5, 5 and 10 mcg/ml)): some difference, which however was not statistically significant
